Assay results reported in ChEMBL document CHEMBL5154916, “Multiparameter Optimization of Naphthyridine Derivatives as Selective α5-GABAA Receptor Negative Allosteric Modulators” (J Med Chem, 2022).

What was measured:
Cytochrome P450 1A2 = biological target: T1, Cytochrome P450 1A2 (Homo sapiens, UniProt P05177); test: Inhibition of CYP1A2 (unknown origin); assay type: ADME
T1 sequence (P05177 whole entry): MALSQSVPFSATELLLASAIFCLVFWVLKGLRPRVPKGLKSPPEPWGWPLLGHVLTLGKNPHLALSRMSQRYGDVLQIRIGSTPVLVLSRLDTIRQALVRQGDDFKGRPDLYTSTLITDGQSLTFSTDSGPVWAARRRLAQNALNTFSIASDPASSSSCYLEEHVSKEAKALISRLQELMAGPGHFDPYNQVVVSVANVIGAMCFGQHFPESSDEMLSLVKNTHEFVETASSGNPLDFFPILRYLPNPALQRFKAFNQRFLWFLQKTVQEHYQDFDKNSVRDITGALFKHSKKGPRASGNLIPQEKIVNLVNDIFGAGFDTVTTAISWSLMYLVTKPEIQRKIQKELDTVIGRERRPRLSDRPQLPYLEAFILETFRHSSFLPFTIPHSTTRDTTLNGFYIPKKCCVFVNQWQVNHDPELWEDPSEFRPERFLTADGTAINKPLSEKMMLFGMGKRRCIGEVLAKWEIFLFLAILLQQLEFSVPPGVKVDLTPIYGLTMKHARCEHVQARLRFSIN

[1] = biological target: GABA-A receptor; alpha-5/beta-3/gamma-2 (Homo sapiens) (UniProt P18507+P28472+P31644); test: Negative allosteric modulation activity at human recombinant alpha5beta3gamma2 GABAA receptor stably expressed in HEK293 cells assessed as modulation at alpha5 subunit at 10 uM by Patch clamp method; assay type: cell-based; conditions: filed as negative allosteric modulator
[2] = Bioavailability in Wistar rat total plasma at 1 mg/kg, iv by HPLC-MS/MS analysis; assay type: ADME, organism-based

IC50 (Cytochrome P450 1A2): > 50 µM | Activity [1]: -39% | bioavailability [2]: 35.8%
SMILES: Cc1onc(-c2ccc(F)cc2)c1COc1ccc2c(n1)CCN(C(=O)CS(C)(=O)=O)C2
